In US20060182792A1, “Liposome-forming compositions” (priority 2002, published 2006):

Assay: Absolute oral bioavailability of liposomally administered octreotide per os in rats
Description: Wistar rats (with approximately 250 g body weight) fast for 12 hours and receive 0.5 ml of the aqueous mixture of the composition according to the invention by pharyngeal probe so that the administered amount of octreotide is 100 μg per animal. As a comparative test 100 μg of free octreotide was dissolved in 0.5 ml of PBS and administered via pharyngeal probe. Blood samples were taken after 30, 60, 120 and 240 min. retroorbitally. An i.v. injection of 2 μg of octreotide per animal provided a control in order to determine the absolute bioavailability. […] Six animals were tested for each formulation.

## C[C@@H](O)[C@@H]1NC(=O)[C@H](CCCCN)NC(=O)[C@@H](Cc2c[nH]c3ccccc23)NC(=O)[C@H](Cc2ccccc2)NC(=O)[C@@H](NC(=O)[C@H](N)Cc2ccccc2)CSSC[C@@H](C(=O)N[C@H](CO)[C@@H](C)O)NC1=O [Free, octreotide]
Wistar, rat, in vivo, 100 μg per animal
  bioavailability: 0.5%
Free octreotide, oral, 0.1 mg/animal, lipid/peptide 0
  Gain factor of the absolute bioavailability vs free octreotide: 1
